{"source": "the supplement of paper PMC10307832", "assay_in_all_cases": "relative viability (nuclei count vs DMSO), 5 days (fraction); higher = more cells survive", "key": {"OSI-027 + Dasatinib": {"compound": "COc1cccc2cc(-c3nc([C@H]4CC[C@H](C(=O)O)CC4)n4ncnc(N)c34)[nH]c12 [OSI-027] + Cc1nc(Nc2ncc(C(=O)Nc3c(C)cccc3Cl)s2)cc(N2CCN(CCO)CC2)n1 [Dasatinib] (partner 0.075 µM)", "outline": "(§1)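 One day after seeding in 1536-well plates, lung cancer cell lines were dosed by pin tool. Dosing was either single-drug or a fixed anchor-drug dose plus five library-drug doses (not always all listed) in √10 steps. After 5 days, nuclei were stained in one fix-and-stain step and counted on 4× images, and relative viability is the nuclei count of treated wells over that of vehicle wells, given as the median of duplicate plates.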"}, "Alpelisib + Olaparib": {"compound": "Cc1nc(NC(=O)N2CCC[C@H]2C(N)=O)sc1-c1ccnc(C(C)(C)C(F)(F)F)c1 [Alpelisib] + O=C(c1cc(Cc2n[nH]c(=O)c3ccccc23)ccc1F)N1CCN(C(=O)C2CC2)CC1 [Olaparib] (partner 8 µM)", "outline": "as §1"}, "Vemurafenib + Pemetrexed": {"compound": "CCCS(=O)(=O)Nc1ccc(F)c(C(=O)c2c[nH]c3ncc(-c4ccc(Cl)cc4)cc23)c1F [Vemurafenib] + Nc1nc2[nH]cc(CCc3ccc(C(=O)N[C@@H](CCC(=O)O)C(=O)O)cc3)c2c(=O)[nH]1 [Pemetrexed] (partner 0.2 µM)", "outline": "as §1"}, "Vemurafenib + Bortezomib": {"compound": "CCCS(=O)(=O)Nc1ccc(F)c(C(=O)c2c[nH]c3ncc(-c4ccc(Cl)cc4)cc23)c1F [Vemurafenib] + CC(C)C[C@H](NC(=O)[C@H](Cc1ccccc1)NC(=O)c1cnccn1)B(O)O [Bortezomib] (partner 0.002 µM)", "outline": "as §1"}}, "data": [{"cell line": "UMC-11", "values": [{"measurement": "relative viability", "setting": "OSI-027 + Dasatinib; first compound 0.01 µM", "result": 0.537}, {"measurement": "relative viability", "setting": "OSI-027 + Dasatinib; first compound 0.03162 µM", "result": 0.457}, {"measurement": "relative viability", "setting": "OSI-027 + Dasatinib; first compound 0.1 µM", "result": 0.404}, {"measurement": "relative viability", "setting": "OSI-027 + Dasatinib; first compound 0.3162 µM", "result": 0.434}, {"measurement": "relative viability", "setting": "OSI-027 + Dasatinib; first compound 1 µM", "result": 0.299}, {"measurement": "relative viability", "setting": "Alpelisib + Olaparib; first compound 0.04 µM", "result": 0.362}, {"measurement": "relative viability", "setting": "Alpelisib + Olaparib; first compound 0.1265 µM", "result": 0.328}, {"measurement": "relative viability", "setting": "Alpelisib + Olaparib; first compound 0.4 µM", "result": 0.389}, {"measurement": "relative viability", "setting": "Alpelisib + Olaparib; first compound 1.265 µM", "result": 0.346}, {"measurement": "relative viability", "setting": "Alpelisib + Olaparib; first compound 4 µM", "result": 0.315}, {"measurement": "relative viability", "setting": "Vemurafenib + Pemetrexed; first compound 0.03162 µM", "result": 0.876}, {"measurement": "relative viability", "setting": "Vemurafenib + Pemetrexed; first compound 0.1 µM", "result": 0.662}, {"measurement": "relative viability", "setting": "Vemurafenib + Pemetrexed; first compound 0.3162 µM", "result": 0.717}, {"measurement": "relative viability", "setting": "Vemurafenib + Pemetrexed; first compound 1 µM", "result": 0.707}, {"measurement": "relative viability", "setting": "Vemurafenib + Bortezomib; first compound 0.03162 µM", "result": 0.468}, {"measurement": "relative viability", "setting": "Vemurafenib + Bortezomib; first compound 0.1 µM", "result": 0.713}, {"measurement": "relative viability", "setting": "Vemurafenib + Bortezomib; first compound 0.3162 µM", "result": 0.57}, {"measurement": "relative viability", "setting": "Vemurafenib + Bortezomib; first compound 1 µM", "result": 0.296}]}]}
